Measurements reported in ChEMBL document CHEMBL5331106, “Investigation into the Mechanism of Action of the Tuberculosis Drug Candidate SQ109 and Its Metabolites and Analogues in Mycobacteria” (J Med Chem, 2023).

Tests used:
[1] = system: Cell membrane; experiment: Uncoupling activity in Escherichia coli inverted membrane vesicles assessed as collapse of pH gradient by measuring increase in ACMA fluorescence intensity by fluorometric analysis; format: subcellular
[2] = system: Mycobacterium tuberculosis; experiment: Antimycobacterial activity against Mycobacterium tuberculosis HN878 assessed as inhibition of mycobacterial growth incubated for 5 days; format: functional, organism-based; details: HN878, 120 h
[3] = system: Mycolicibacterium smegmatis; experiment: Antimycobacterial activity against Mycobacterium smegmatis assessed as inhibition of mycobacterial growth incubated for 48 hrs; format: functional, organism-based
[4] = system: Mycolicibacterium smegmatis; experiment: Rescue fold, ratio of IC50 for antimycobacterial activity against Mycobacterium smegmatis in presence of 50 uM undecaprenyl phosphate to IC50 for antimycobacterial activity against Mycobacterium smegmatis; format: functional
[5] = system: Mycolicibacterium smegmatis; experiment: Antimycobacterial activity against Mycobacterium smegmatis assessed as inhibition of mycobacterial growth incubated for 48 hrs in presence of 50 uM undecaprenyl phosphate; format: functional, organism-based
[6] = system: Mycobacterium tuberculosis; experiment: Antimycobacterial activity against Mycobacterium tuberculosis HN878 assessed as inhibition of mycobacterial growth incubated for 5 days in presence of 50 uM undecaprenyl phosphate; format: functional, organism-based; details: HN878, 120 h
[7] = biological target: T1, Undecaprenyl-diphosphatase (Escherichia coli (strain K12), UniProt P60932); experiment: Inhibition of UppP in Escherichia coli using FPP as substrate pretreated for 20 mins followed by FPP addition and measured after 60 mins by malachite green based assay
T1 sequence (P60932 whole entry): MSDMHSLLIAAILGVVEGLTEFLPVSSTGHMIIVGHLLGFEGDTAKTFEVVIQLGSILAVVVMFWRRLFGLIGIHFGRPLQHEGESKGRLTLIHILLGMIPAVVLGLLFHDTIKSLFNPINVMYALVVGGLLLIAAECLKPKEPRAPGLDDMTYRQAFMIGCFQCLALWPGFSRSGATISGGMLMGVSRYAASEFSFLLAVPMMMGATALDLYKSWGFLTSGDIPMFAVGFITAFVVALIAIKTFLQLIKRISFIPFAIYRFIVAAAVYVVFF

[8] = system: Mycolicibacterium smegmatis; experiment: Antimycobacterial activity against Mycobacterium smegmatis assessed as inhibition of mycobacterial growth incubated for 48 hrs in presence of 50 uM Upp; format: functional, organism-based
[9] = system: Mycolicibacterium smegmatis; experiment: Antimycobacterial activity against Mycobacterium smegmatis assessed as inhibition of mycobacterial growth incubated for 48 hrs in presence of 50 uM menaquinone-4; format: functional, organism-based
[10] = system: Mycolicibacterium smegmatis; experiment: Rescue fold, ratio of IC50 for antimycobacterial activity against Mycobacterium smegmatis in presence of 100 uM menaquinone-7 to IC50 for antimycobacterial activity against Mycobacterium smegmatis; format: functional
[11] = system: Mycolicibacterium smegmatis; experiment: Rescue fold, ratio of IC50 for antimycobacterial activity against Mycobacterium smegmatis in presence of 100 uM menaquinone-4 to IC50 for antimycobacterial activity against Mycobacterium smegmatis; format: functional

Row | Compound | IC50 [1] [µM] | IC50 [2] [µM] | IC50 [3] [µM] | Ratio IC50 [4] | IC50 [5] [µM] | IC50 [6] [µM] | IC50 [7] [µM] | IC50 [8] [µM] | IC50 [9] [µM] | Ratio IC50 [10] | Ratio IC50 [11]
1 | CC(C)=CCCC1(C)CC=NO1 (stereo not drawn) | > 1000 | > 25 | > 500 |  |  |  |  |  |  |  | 
2 | C/C(=C\CNCCNC1C2CC3CC(C2)CC1C3)CCC(=O)C(C)C (stereo not drawn) | 15 | 14 | 26 | 2.4 | 63 |  |  |  |  |  | 
3 | CC(C)=CCC/C(C)=C/C=O [CITRAL] | > 1000 | > 25 | > 500 |  |  |  |  |  |  |  | 
4 | CC(C)=CCC/C(C)=C/CNCCNC1C2CC3CC(C2)CC1(O)C3 (stereo not drawn) | 9.1 | 0.81 | 5 | 3 | 15 |  |  |  |  |  | 
5 | O=C1C2CC3CC(C2)CC1C3 | > 1000 | > 25 | > 500 |  |  |  |  |  |  |  | 
6 | CC(C)=CCC/C(C)=C/CN | 307 | > 25 | > 500 |  |  |  |  |  |  |  | 
7 | C/C(=C\CC/C(C)=C/CNCCNC1C2CC3CC(C2)CC1C3)CO (stereo not drawn) | 17 | > 16 | 20 | 1.2 | 24 |  |  |  |  |  | 
8 | CC(C)=CCC/C(C)=C/CNCCOC1C2CC3CC(C2)CC1C3 (stereo not drawn) | 1.2 | 0.07 | 1.3 | 9 | 11 | 0.54 | 21 |  |  |  | 
9 | c1ccc(CCNC2CCCc3c2[nH]c2ccc(C4CCCCC4)cc32)cc1 (stereo not drawn) |  |  | 14 |  | 56 |  |  | 14 |  |  | 
10 | CC(C)=CCC/C(C)=C/CNCCNC1C2CC3CC1CC(O)(C3)C2 (stereo not drawn) | 18 | > 25 | 42 | 1.4 | 57 |  |  |  |  |  | 
11 | CC(C)=CCC/C(C)=C/CNCCNC1[C@H]2C[C@@H]3C[C@H](C2)[C@@H](O)[C@H]1C3 (stereo partly drawn) | 12 | 4.2 | 11 | 2.2 | 24 |  |  |  |  |  | 
12 | CC(C)=CCC/C(C)=C/C=N\O | > 1000 | > 25 | > 500 |  |  |  |  |  |  |  | 
13 | ON=C1C2CC3CC(C2)CC1C3 | > 1000 | > 25 | > 500 |  |  |  |  |  |  |  | 
14 | CCCCc1ccc(-c2nc(C)c(/C(C)=N/NC(=N)N)s2)cc1 |  |  | 11 | 7.8 | 89 |  |  |  | 9.8 |  | 
15 | CC(C)=CCC/C(C)=C/CNCCNC1C2CC3CC1CC(C2)C3O (stereo not drawn) | 19 | > 25 | 42 | 1.6 | 67 |  |  |  |  |  | 
16 | CC(C)=CCC/C(C)=C/COCCNC1C2CC3CC(C2)CC1C3 (stereo not drawn) | 55 | 1.3 | 7.3 | 1.3 | 9.8 | 2.8 | 91 |  |  |  | 
17 | NCCNC1C2CC3CC(C2)CC1C3 (stereo not drawn) | 130 | > 25 | > 500 |  |  |  |  |  |  |  | 
18 | CCCCCCCCCCCNCCNC1C2CC3CC(C2)CC1C3 (stereo not drawn) | 0.87 | 1.9 | 3.9 | 2.3 | 8.9 | 24 | 18 |  |  |  | 
19 | CC(C)=CCC/C(C)=C/C(=O)O | > 1000 | > 25 | > 500 |  |  |  |  |  |  |  | 
20 | NC1C2CC3CC(C2)CC1C3 (stereo not drawn) | > 1000 | > 25 | > 500 |  |  |  |  |  |  |  | 
21 | CC(C)=CCC/C(C)=C/C(C)(C)NCCNC1C2CC3CC(C2)CC1C3 (stereo not drawn) | 1.1 | 0.61 | 1.9 | 23 | 43 | 8.7 | 37 |  |  |  | 
22 | CC(C)=CCC/C(C)=C/CCNCCNC1C2CC3CC1CC(F)(C3)C2 (stereo not drawn) | 5.5 | 1.5 | 8 | 4.8 | 38 | 8.8 | 153 |  |  |  | 
23 | CC(C)=CCC/C(C)=C/CNCCN | 77 | > 25 | > 500 |  |  |  |  |  |  |  | 
24 | CC(C)=CCC/C(C)=C/CCNCCNC1C2CC3CC(C2)CC1C3 (stereo not drawn) | 1.9 | 0.82 | 2.7 | 18 | 48 | 8 | 16 |  |  | 2 | 2
25 | CC(C)CCCC(C)CCNCCNC1C2CC3CC(C2)CC1C3 (stereo not drawn) | 5.2 | 1.7 | 9.3 | 1 | 9.1 | 16 | 15 |  |  |  | 
